Results on 18 compounds are retold here after patent publication US5668141A, “Trans-2,6-,3,6-and 4,6-diaza-5,6,6a,7,8,12b-hexahydrobenzo[c]phenanthrene compounds as dopamine agonists” (Abbott Laboratories, priority 1996, dated 1997).

Each structure is given as a SMILES string. Counter-ions that a name gives are not always drawn.

The test system of one test is dopamine receptor. To be noted: cited from earlier work.
The target of the next test is T1, human D1 receptor (Homo sapiens, UniProt P21728).
T1 construct: expressed in transfected cells; host or cells: HEK-D1 cells (HEK cells expressing the human D1 clone)
T1 sequence (P21728 whole entry): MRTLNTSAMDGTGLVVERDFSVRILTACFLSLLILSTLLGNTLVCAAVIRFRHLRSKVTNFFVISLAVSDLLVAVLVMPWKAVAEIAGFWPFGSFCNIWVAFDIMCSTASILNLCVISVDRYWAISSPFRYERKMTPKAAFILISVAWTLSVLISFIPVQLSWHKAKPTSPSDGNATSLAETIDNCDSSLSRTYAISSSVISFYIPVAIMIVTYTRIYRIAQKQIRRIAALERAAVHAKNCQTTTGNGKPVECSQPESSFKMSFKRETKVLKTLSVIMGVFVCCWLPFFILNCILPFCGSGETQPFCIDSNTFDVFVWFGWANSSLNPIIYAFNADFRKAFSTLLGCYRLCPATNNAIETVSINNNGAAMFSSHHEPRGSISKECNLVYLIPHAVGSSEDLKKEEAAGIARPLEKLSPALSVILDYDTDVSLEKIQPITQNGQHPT
Description: Adenylate cyclase activity (cAMP stimulation in HEK-D1 cells). In kind it is cell-based. To be noted: read-out: IA (relative intrinsic activity to dopamine). Here is the method: Adenylate cyclase activity: Human D1 receptor.
The interaction of dopamine or a dopamine D-1 receptor agonist with the D-1 receptor causes a dose-dependent increase in the adenylate cyclase-catalyzed conversion of adenosine triphosphate (ATP) to cyclic adenosine monophosphate (cAMP). The functional activity of the compounds of the invention was determined by assaying their ability to either stimulate the enzyme adenylate cyclase to produce cAMP (agonist activity). Assays were conducted in 24-well or 48-well tissue culture plates. The assay buffer consisted of DPBS containing CaCl2 and MgCl2, 0.1% glucose, 0.5 mM IBMX, 0.004% ascorbic acid and 10 μM propranolol to inhibit potential cross activation of the endogenous β-receptor. Culture medium was removed, and HEK-D1 cell was washed once with assay buffer, and 400 μl fresh assay buffer was added for 10 min. Next, 100 μl of dopamine or dopamine agonist, dissolved in assay buffer, was added to the cell for an additional 15 min, and incubations were terminated with 500 μL 0.2N HCl. cAMP contents were determined by RIA using the automated Attoflo™ system (Rockville, Md.).
The hD1c ED50 level is a measure of the potency, showing the concentration (nM) at which a 50% response is obtained; a lower number indicates a higher potency. High intrinsic activity (IA) indicates the activity of the compound as a dopamine agonist.

For test [1], the system named is striatal dopamine receptors. Nature of the test: Rotation behavior, rat rotational model (6-hydroxydopamine unilateral lesion). It is filed as in vivo. The following applies: sc, 6-hydroxydopamine-lesioned rats.
Description: The behavioral assay used was based on the rat rotational model. Striatal dopamine was depleted by the intracranial injection of 6-hydroxydopamine, a neurotoxin which specifically destroys catecholaminergic neurons. […] This unilateral lesioning of dopamine-containing neurons causes the post-synaptic dopamine receptors to become supersensitive to dopaminergic stimulation in behavioral assays. […] Agonist activity was measured by the ability of the test compound to induce rotation.
A lower number indicates a higher potency.
The test system of a further test is schizophrenia. The following applies: cited from earlier work; for antipsychotic effect: low doses.
The subject of the next test is Parkinson's disease. To be noted: alone, some early Parkinson's disease patients; cited from earlier work.
For test [2], the system named is neural feeding mechanisms. To be noted: rats; cited from earlier work.
The next test has as its system acute renal failure. The following applies: in combination with diuretics, patients; cited from earlier work.

In the case of `Oc1cc2c(cc1O)[C@H]1c3ccccc3CN[C@@H]1CC2` (racemic) [dihydrexidine], in the test on dopamine receptor, the dopamine agonist activity result was “active as a dopamine agonist”.
With `Oc1cc2c(cc1O)[C@@H]1c3cccnc3CN[C@H]1CC2` (relative stereo) [Example 1, trans-4,6-diaza-5,6,6a,7,8,12b-hexahydrobenzo[c]phenanthrene 10,11-diol dihydrobromide], the Emax on human D1 receptor worked out at 125%.
As for `Cc1ccc2c(n1)CN[C@H]1CCc3cc(O)c(O)cc3[C@H]21` (relative stereo) [Example 2, trans-4,6-diaza-5,6,6a,7,8,12b-hexahydro-3-methylbenzo[c]phenanthrene 10,11-diol dihydrobromide], at human D1 receptor, the Emax was 121%.
As to `CCCc1ccc2c(n1)CN[C@H]1CCc3cc(O)c(O)cc3[C@H]21` (relative stereo) [Example 3, trans-4,6-diaza-5,6,6a,7,8,12b-hexahydro-3-propylbenzo[c]phenanthrene 10,11-diol dihydrobromide], the Emax at human D1 receptor amounted to 116%. Besides, the “Rotation behavior EC50” value in test [1] turned out to be 0.14 µmol/kg.
`COc1ccc2c(n1)CN[C@H]1CCc3cc(O)c(O)cc3[C@H]21` (relative stereo) [Example 4, trans-4,6-diaza-5,6,6a,7,8,12b-hexahydro-3-methoxybenzo[c]phenanthrene 10,11-diol dihydrobromide]: the Emax at human D1 receptor was found to be 114%.
On to `Oc1cc2c(cc1O)[C@@H]1c3ccc(F)nc3CN[C@H]1CC2` (relative stereo) [Example 5, trans-4,6-diaza-3-fluoro-5,6,6a,7,8,12 b-hexahydrobenzo[c]phenanthrene 10,11-diol dihydrobromide], for which the Emax on human D1 receptor was determined as 141%. Further, the “Rotation behavior EC50” value in test [1] is 0.82 µmol/kg.
Take `Cc1cnc2c(c1)[C@H]1c3cc(O)c(O)cc3CC[C@@H]1NC2` (relative stereo) [Example 7, trans-4,6-diaza-5,6,6a,7,8,12b-hexahydro-2-methylbenzo[c]phenanthrene 10,11-diol dihydrobromide]: the Emax on human D1 receptor was 156%.
Still for that read-out and setting: in the case of `CCCCc1cnc2c(c1)[C@H]1c3cc(O)c(O)cc3CC[C@@H]1NC2` (relative stereo) [Example 8, trans-4,6-diaza-5,6,6a,7,8,12b-hexahydro-2-butylbenzo[c]phenanthrene 10,11-diol dihydrobromide] it was 118%; in that of `Cc1cc2c(nc1C)CN[C@H]1CCc3cc(O)c(O)cc3[C@H]21` (relative stereo) [Example 9, trans-4,6 diaza-5,6,6a,7,8,12b-hexahdro-2,3-dimethylbenzo[c]phenanthrene 10,11-diol dihydrobromide], 134%; in that of `Oc1cc2c(cc1O)[C@@H]1c3cc4c(nc3CN[C@H]1CC2)CCCC4` (relative stereo) [Example 10, trans-4,6-diaza-5,6,6a,7,8,12b-hexahydro-2,3-cyclohexenobenzo[c]phenanthrene 10,11-diol dihydrobromide], 136%.
Take `Oc1cc2c(cc1O)[C@@H]1c3cnccc3CN[C@H]1CC2` (relative stereo) [Example 11, trans-2,6-diaza-5,6,6a,7,8,12b-hexahydrobenzo[c]phenanthrene 10,11-diol dihydrobromide]: on human D1 receptor, the Emax was 81%.
The same measure, in the same setting: in the case of `Oc1cc2c(cc1O)[C@@H]1c3cncc(F)c3CN[C@H]1CC2` (relative stereo) [Example 12, trans-2,6-diaza-4-fluoro-5,6,6a,7,8,12b-hexahydrobenzo[c]phenanthrene 10,11-diol dihydrobromide] it was 126%; in that of `Oc1cc2c(cc1O)[C@@H]1c3ccncc3CN[C@H]1CC2` (relative stereo) [Example 13, trans-3,6-diaza-5,6,6a,7,8,12b-hexahydrobenzo[c]phenanthrene 10,11-diol dihydrobromide], 131%.
Consider `Cc1cncc2c1CN[C@H]1CCc3cc(O)c(O)cc3[C@H]21` (relative stereo) [Example 14, trans-2,6-diaza-4-methyl-5,6,6a,7,8,12b-hexahydrobenzo[c]phenanthrene 10,11-diol dihydrobromide], for which, at human D1 receptor, the Emax stood at 75%.
Consider `CC(C)C[C@H]1C(=O)N2CCC[C@H]2[C@]2(O)O[C@](NC(=O)[C@@H]3C=C4c5cccc6[nH]c(Br)c(c56)C[C@H]4N(C)C3)(C(C)C)C(=O)N12` [Bromocriptine], for which, in the test on schizophrenia, the antipsychotic effect result is given as “produce antipsychotic effects”. The “effect on Parkinson's disease symptoms” value in the test on Parkinson's disease is recorded as “relieve Parkinson's disease symptoms in some early Parkinson's disease patients”.
As for `Oc1cc2c(cc1O)C(c1ccccc1)CNCC2` (stereo not shown) [SKF 38393], the “effect on side-effects of haloperidol” value with schizophrenia (in conjunction with haloperidol) is “ameliorate the undesired side-effects of the haloperidol”. Moreover, in test [2], the “effect on food intake” value is on record as “decrease food intake by rats”.
With `CN1CCc2cccc3c2[C@H]1Cc1ccc(O)c(O)c1-3` [apomorphine], in the test on schizophrenia, the antipsychotic effect result was “produce antipsychotic effects”.
Turning to `NCCc1ccc(O)c(O)c1` [dopamine], the “effect on acute renal failure” value in the test with acute renal failure is “reverse radio-contrast media-induced acute renal failure”.
